System: primary human T lymphocytes
Assay: Anti-CD3 induced T lymphocyte activation/proliferation (flow cytometry)
Type: cell-based
Details: 25 μM
Protocol: In order to assess the ability of MIF antagonists to disrupt autoimmune-associated T cell activation, primary human T lymphocytes were prepared using standard Ficoll-gradient preparations. 1×10^6 lymphocytes/ml were resuspended in RPMI/10% FCS and plated onto anti-CD3 antibodies previously immobilized onto tissue culture plates. Control, vehicle control (0.1% DMSO), 25 μM 4-IPP or 25 μM ACT-003 were added to cells and allowed to incubate for 48 hours. Cells were lifted, washed and stained with anti-CD4 or anti-CD8 antibodies and then analyzed by flow cytometry.
To validate the effects of MIF antagonists on T lymphocyte activation, experiments were set up exactly as described above and, 48 hours later, treated and untreated lymphocytes were stained with an anti-CD25 antibody. CD25 is also known as the high affinity IL-2 receptor—a very well characterized and frequently marker of T lymphocyte activation.
In order to investigate the relative kinetics of when 4-IPP and ACT-003 are acting in blocking T lymphocyte activation, we repeated the experiment described above but harvested lymphocytes only 16 hours after anti-CD3 plating. At this early time point during T lymphocyte activation, CD69 is found to be expressed and is usually considered to be an “early marker” of lymphocyte activation.
Finally, to confirm that proliferation of CD4+ and CD8+ T lymphocytes is blocked by 4-IPP-based MIF antagonists, we repeated the experiment as described above, added labeled-BrdU to cells, stained with either labeled anti-CD4 or anti-CD8 antibodies and then assessed relative CD4/CD8 and BrdU labeling in each treatment group.

SMILES: Fc1ccccc1-c1cc(I)ncn1 [ACT-MIF-003, 4-Iodo-6-(2-fluorophenyl)pyrimidine]
- CD69 expression (16 hours, FIGS. 17 and 18): only a marginal effect on CD69 expression
- CD4 and CD8 T lymphocytes after anti-CD3 activation (48 hours, FIGS. 13 and 14): significantly fewer CD4 and CD8 T lymphocytes
- Anti-CD3-induced CD25 expression (48 hours, FIGS. 15 and 16): almost completely blocked the anti-CD3-induced CD25 expression
- BrdU labeling of CD8+ and CD4+ T lymphocytes (proliferation) (48 hours, FIGS. 19 and 20): almost completely blocked BrdU labeling in both CD8+ and CD4+ T lymphocytes

From US20180009764A1, “METHOD FOR TREATING MACROPHAGE MIGRATION INHIBITORY FACTOR (MIF)-IMPLICATED DISEASES AND CONDITIONS WITH IODO PYRIMIDINE DERIVATIVES” (UNIVERSITY OF LOUISVILLE RESEARCH FOUNDATION, INC., priority 2009, published 2018)
